Results: EP0705591A2, “Cyclic amidocarboxy surfactants, synthesis and use thereof” (STEPAN COMPANY, priority 1989, dated 1991)

How the values were obtained:
[1] = Emulsion stability test (modified, xylene/water); format: physicochemical; conditions: 0.5g surfactant, 90 mL deionized water, 5.0 mL xylene; second rocking sequence
Procedure: In order to obtain reproducible results, an emulsion stability test, modified from the standard used in the art for testing surfactants was developed. In the modified procedure, 0.5g of a select surfactant (instead of 1g) was dissolved in 90 mL of deionized water in a graduated cylinder containing 5.0 mL of xylene, which was then sealed and rocked between a vertical/horizontal position for 30 cycles, allowed to settle for about 5 to 10 minutes and subjected to the same rocking cycle with the results of the second sequence recorded (instead of the first sequence).

[2] = Solubility in various solvents (vehicles); format: physicochemical; parameters: key: I - INSOLUBLE; S - SOLUBLE; conditions: 1% actives
Procedure: (§1) Sodium N-octadecylphthalamate, 1% actives, was evaluated for solubility in various solvents and under cold storage (4°C) and freeze-thaw conditions.

[3] = Cold storage and freeze-thaw stability of solutions; format: physicochemical; parameters: key: P - PASS; conditions: 1% actives; for STABILITY FREEZE THAW: 3 freezing/thawing cycles; for STABILITY COLD STORAGE: 24 hours at 4 °C
Procedure: as §1

[4] = Emulsification in foodstuffs; conditions: about 1% by weight, substituted for egg yolk
Procedure: Sodium N-octadecylphthalamate was added to a standard cup-cake recipe at actives levels of 0% (control), 1%, 2%, 3%, 4%, and 5%. The N-octadecylphthalamate was admixed into a typical batter as a partial replacement for the shortening, margarine or butter called for in the recipe, baked at a uniform temperature (about 176°C) and time (about 25 minutes). […] A mayonnaise formulation containing about 1% by weight, based on a 100% total weight of formulation, of sodium N-octadecylphthalamate was prepared, with the N-octadecylphthalamate being substituted for egg yolk in a given recipe. […] A dog food was prepared by admixing about 200g of "Generic" beef-flavored dog food with 3g of 100% actives sodium N-octadecylphthalamate. Samples of this dog food were exposed to various temperatures (i.e., 0°C, 43°C and 50°C).

[5] = Thermal stability followed by IR spectroscopy; format: physicochemical; conditions: for Conversion to the N-dodecylphthalimide: neat (100% actives), about 100°C
Procedure: Thermal stability studies were conducted with neat (100% actives) sample of ammonium N-dodecylphthalamate mulled on sodium chloride plates. […]

[6] = Caustic stability (reflux with NaOH); format: physicochemical; conditions: for ES*(mL/sec) (Emulsion Stability): reflux with an equivalent of NaOH
Procedure: In order to determine caustic stability of the phthalamates, 5g of octylphthalamic acid was dissolved in 450 mL of water containing an equivalent of NaOH. This mixture was heated at reflux for about 24 hours and five separate 90mL samples were withdrawn at 0 hours, 1 hour, 2 hours, 16.5 hours and 23.7 hours. The resulting individual samples were acidified and the sodium N-octylphthalamic acid was isolated and analyzed (filtered, dried, weighted and m.p. and neutralization equivalents were obtained).

[7] = Bleach (chlorine ion) stability; format: physicochemical; conditions: for formulation clarity / foaming characteristics: 2.0% actives surfactant, 4.0% actives NaOCl; for formulation clarity: 1.0% NaOH, 90°C water bath about 5 hours; for foaming characteristics: after about 5 hours at 90°C
Excerpt: Select N-alkyl and N,N-dialkyl phthalamates were incorporated into a standard test formulation containing a common bleach. […] The standard formulation comprised 4.0% actives of NaOCl; 0.25% actives NaCl; 1.0% actives NaOH (50%); 2.0% actives surfactant and Q.S. 100% deionized water. 1. DOWFAX^R-2A1 is Dow Chemical Company's registered trademark for sodium branched C₁₂ diphenyloxide disulfonate. 2. MAKON^R- 10 is Stepan Company's registered trademark for a nonylphenol polyethoxylate.
The various formulations were individually placed in tightly capped jars and subjected to a 90°C water bath for about 5 hours and then observed for formulation clarity and foaming characteristics. Each sample was run in duplicate.

[8] = Particulate material suspension; format: physicochemical
Procedure: In this test, potassium N-octadecylphthalamate was utilized as a suspending agent in a typical shampoo base with known particulate anti-dandruff materials, zinc pyrithione and coal tar. Particulate (about 500 mesh) zinc pyrithione and particulate (about 350 to 400 mesh) coal tar were suspended in shampoo base formulations and stored at room temperature, at about 1.6°C and at about 43.3°C.
About 2 percent potassium octadecylphthalamate was incorporated with about 50 to 70 percent particulate coal (average size about 200 mesh) and about 30 to 50 percent water at ambient temperature.

[9] = Crude oil emulsification/dispersion and pH reversibility; format: physicochemical
Procedure: Sodium N-dodecylphthalamate, sodium N-cocophthalamate, sodium N-isodecyloxypropylphthalamate and sodium N-isododecyloxypropylphthalamate, along with a control (tap water only), were evaluated as emulsifying and/or dispersing and/or suspending agents for a given, heavy (viscous) crude petroleum oil (Dome crude oil, David Field, California) in different water samples, one having a hardness (expressed as CaCO₃) of 150 ppm, another having a hardness of 500 ppm, along with a synthetic sea water (NaCl-containing tap water, 150 ppm). In addition, various admixtures of sodium N-dodecylphthalamate and lauryl amine oxide were similarly evaluated with the above petroleum crude oil and synthetic sea water for synergistic emulsification characteristics.
The respective surfactants were prepared as aqueous solutions with the various water samples at a concentration of about 0.1 percent actives. Measured samples (50 mL) of the surfactant solutions were placed in 100 mL graduated cylinders, 2 drops of the crude oil added, the cylinders stoppered and relatively vigorously shaken manually for about 10 to 20 seconds. The degree of emulsification/dispersion, suspension was noted and recorded The data is set for in Table VIII below.
At relatively high pH values (i.e., above about 7) emulsification of the crude oil readily occurred and at relatively how pH values (i.e., below about 5) de-emulsification of the crude oil readily occurred. A control was prepared from a sample of the 150 ppm hardness water without surfactant but with 2 drops of the above crude oil.
The foregoing cycle between relatively high pH and relatively low pH was repeated an additional three times, with essentially identical emulsification/de-emulsification results. During a low (4.9) pH de-emulsification cycle, separated crude oil was removed, by decantation and a pH of the remaining (used) phthalamic solution was adjusted to about 13.5 and fresh crude oil added. […] Upon addition of additional fresh sodium N-dodecylphthalamate, the emulsion re-formed.

Draves Wetting test = format: physicochemical; conditions: tap water; active level of 0.1%
Excerpt: (§2) Standard Ross-Miles Foaming and Draves Wetting tests were preformed on various fatty phthalamates with the results set forth in Table 1 below. In all tests, an active level of 0.1% was utilized.

Ross-Miles Foaming test = format: physicochemical; conditions: tap water; active level of 0.1%
Excerpt: as §2

[10] = 0.1% actives in 50 mL of 150 ppm hardness water

CCCCCCCCNC(=O)c1ccccc1C(=O)O.OCCN(CCO)CCO [Triethanolammonium N-octylphthalamate]
Emulsion Break Rate [1]: 0.043 mL/s

CCCCCCCCCCCCCCCCCCNC(=O)c1ccccc1C(=O)[O-].[Na+] [Sodium N-octadecylphthalamate, Sodium N-Octadecylphthalamate]
APPEARANCE 24 HOURS @ RT^0 AFTER HEAT ([2]; vehicle AMMONYX^R LO): S | APPEARANCE 25^0C ([2]; vehicle AMMONYX^R LO): S | APPEARANCE 50^0C ([2]; vehicle AMMONYX^R LO): S | APPEARANCE 24 HOURS @ RT^0 AFTER HEAT ([2]; vehicle AMPHOSOL^R): S | APPEARANCE 25^0C ([2]; vehicle AMPHOSOL^R): I | APPEARANCE 50^0C ([2]; vehicle AMPHOSOL^R): S | APPEARANCE 24 HOURS @ RT^0 AFTER HEAT ([2]; vehicle MAKON^R 10): S | APPEARANCE 25^0C ([2]; vehicle MAKON^R 10): I | APPEARANCE 50^0C ([2]; vehicle MAKON^R 10): I | APPEARANCE 24 HOURS @ RT^0 AFTER HEAT ([2]; vehicle NINOL^R 40-CO): S | APPEARANCE 25^0C ([2]; vehicle NINOL^R 40-CO): I | APPEARANCE 50^0C ([2]; vehicle NINOL^R 40-CO): S | APPEARANCE 24 HOURS @ RT^0 AFTER HEAT ([2]; vehicle STEPANATE^R): I | APPEARANCE 25^0C ([2]; vehicle STEPANATE^R): I | APPEARANCE 50^0C ([2]; vehicle STEPANATE^R): I | STABILITY FREEZE THAW ([3]; vehicle AMMONYX^R LO): P | STABILITY COLD STORAGE ([3]; vehicle AMMONYX^R LO): P | STABILITY FREEZE THAW ([3]; vehicle AMPHOSOL^R): P | STABILITY COLD STORAGE ([3]; vehicle AMPHOSOL^R): P | STABILITY FREEZE THAW ([3]; vehicle MAKON^R 10): P | STABILITY COLD STORAGE ([3]; vehicle MAKON^R 10): P | STABILITY FREEZE THAW ([3]; vehicle NINOL^R 40-CO): P | STABILITY COLD STORAGE ([3]; vehicle NINOL^R 40-CO): P | mayonnaise emulsion stability [4]: excellent stability | imidation ([5]; 3.5 hours at 150°C): only a very small degree of imidation | imidation ([5]; 64 hours at 150°C): significant formation of N-octadecylphthalimide

CCCCCCCCCCNC(=O)c1ccccc1C(=O)[O-].[Na+] [Sodium N-decylphthalamate]
Emulsion Break Rate [1]: 0.034 mL/s

CCCCCCCCCCNC(=O)c1ccccc1C(=O)O.OCCN(CCO)CCO [Triethanolammonium N-decylphthalamate]
Emulsion Break Rate [1]: 0.046 mL/s

CCCCCCCCCCCCCCNC(=O)c1ccccc1C(=O)[O-].[Na+] [Sodium N-tetradecylphthalamate]
Emulsion Break Rate [1]: 0.085 mL/s

CCCCCCCCNC(=O)c1ccccc1C(=O)[O-].[Na+] [Sodium N-octylphthalamate]
Emulsion Break Rate [1]: 0.111 mL/s | pH at which stable ([6]; caustic environment, reflux about 24 hours): at least 10 | ES*(mL/sec) (Emulsion Stability) ([6]; sample at 0 hr): 0.0252 mL/s | ES*(mL/sec) (Emulsion Stability) ([6]; sample at 1 hr): 0.0325 mL/s | ES*(mL/sec) (Emulsion Stability) ([6]; sample at 2 hr): 0.0400 mL/s | ES*(mL/sec) (Emulsion Stability) ([6]; sample at 16.5 hr): 0.0690 mL/s | ES*(mL/sec) (Emulsion Stability) ([6]; sample at 23.7 hr): 0.108 mL/s

CCCCCCCCCCCCN(C)C(=O)c1ccccc1C(=O)[O-].[Na+] [sodium N-methyl-N-dodecylphthalamate, Sodium N-Dodecyl-N-methylphthalamate]
formulation clarity [7]: clear yellow throughout the test | foaming characteristics [7]: unstabile | bleach stability ([7]; conclusion from the 90°C bleach test): good bleach stability

CCCCCCCCCCCCNC(=O)c1ccccc1C(=O)O.N [ammonium N-dodecylphthalamate, Ammonium N-Dodecylphthalamate]
Conversion to the N-dodecylphthalimide ([5]; 10 minutes): very apparent | Conversion to the N-dodecylphthalimide ([5]; 20 minutes): almost total conversion

CCCCCCCCCCCCCCCCNC(=O)c1ccccc1C(=O)[O-].[Na+] [Sodium N-hexadecylphthalamate]
Emulsion Break Rate [1]: 0.102 mL/s

CCCCCCCCCCCCCCCCCCNC(=O)c1ccccc1C(=O)[O-].[K+] [potassium N-octadecylphthalamate]
suspension of particulate coal in water ([8]; about 2 percent with about 50 to 70 percent coal (about 200 mesh), ambient temperature): free flowing, substantially homogeneous suspension | stability of zinc pyrithione suspension in shampoo base ([8]; after 5 days at 43.3°C): phase separation | stability of coal tar suspension in shampoo base ([8]; after 5 days at room temperature, at 1.6°C and at 43.3°C): excellent stability

CCCCCCCCCCCCNC(=O)c1ccccc1C(=O)O.OCCN(CCO)CCO [Triethanolammonium N-dodeylphthalamate]
Emulsion Break Rate [1]: 0.039 mL/s

CCCCCCCCCCCCNC(=O)c1ccccc1C(=O)[O-].[Na+] [Sodium N-dodecylphthalamate, Sodium N-Dodecylphthalamate]
Emulsion Break Rate [1]: 0.068 mL/s | formulation clarity [7]: initially clear yellow but became cloudy and exhibited phase separation | pH values at which de-emulsification of the crude oil readily occurred [9, 10]: below 5 | pH values at which emulsification of the crude oil readily occurred [9, 10]: above 7 | emulsification of crude oil ([9]; 0.1% actives, 150 ppm hardness water, pH of 8.5): the oil readily emulsified | emulsification of crude oil ([9]; pH dropped to about 3.5): the emulsion broke | emulsification of crude oil ([9]; pH dropped to about 5.2): a slight flocculation noted | emulsification of crude oil ([9]; pH dropped to about 7.0): without noticeable de-emulsification | emulsification of crude oil ([9]; pH dropped with 1N HCl to about 2.6): the emulsion broke, almost instantly, with floccing | emulsification of crude oil ([9]; pH raised with 1N NaOH to about 13.4): an emulsified solution was noted | emulsification of crude oil ([9]; used solution, pH about 13.5, fresh crude oil added): very stabile emulsion was quickly formed | thermal stability ([5]; 120°C): stabile

sodium N,N-dicocophthalamate
formulation clarity [7]: poor solubility, with phase separation | foaming characteristics [7]: no pre-bath or post-bath foam

CC(C)CCCCCCCCCOCCCNC(=O)c1ccccc1C(=O)[O-].[Na+] [sodium isododecyloxypropylphthalamate, Sodium N-Isododecyloxypropylphthalamate]
wetting time (Draves Wetting test): 4.5 s | foam height (Ross-Miles Foaming test): 5.5 cm
